Source: patent publication US6476067B1, “N-formyl hydroxylamine derivatives as antibacterial agents” (British Biotech, priority 1998, dated 2002)
Converted amounts (≈) assume the structure as drawn.

Columns and labels:
E. coli strain DH5α = experiment: Minimal inhibitory concentration (MIC), broth microdilution; type: cell-based; details: Escherichia coli, 2×YT broth, 37° C., 18 hours, lowest concentration that inhibited visible growth
Method: (§1) Minimal inhibitory concentrations (MIC) of inhibitors against E. colistrain DH5α (Genotype; F-φ80d/acZΔM15Δ(lacZYA-argF)U169 deoR recA1 endA1 hsdR17(rk^−,mk^+)phoA supE44λ^−thi-1 gyrA96 re/A1) obtained from GibcoBRL Life Technologies, or Staphylococcus capitis (American Type Culture Collection number 35661) were determined as follows. Stock solutions of each test compound were prepared by dissolution of the compound in dimethylsulfoxide at 10 mM. For the determination of the minimal inhibitory concentration, two fold serial dilutions were prepared in 2×YT broth (typtone-16 g/1, yeast extract 10 g/1, sodium chloride 5 g/1 obtained from BIO 101 Inc, 1070 Joshua Way, Vista, Calif. 92083, USA) to yield 0.05 ml compound-containing medium per well. Inocula were prepared from cultures grown overnight in 2×YT broth at 37° C. Cell densities were adjusted to absorbance at 660 nm (A660)=0.1; the optical density-standardized preparations were diluted 1:1000 in 2×YT broth; and each well inoculated with 0.05 ml of the diluted bacteria. Microtiter plates were incubated at 37° C. for 18 hours in a humidified incubator. The MIC (μM) was recorded as the lowest drug concentration that inhibited visible growth.

[1] = tested on: Staphylococcus capitis (American Type Culture Collection number 35661); experiment: as above; type: cell-based; details: ATCC35661, S. capitis ATCC 35661, 2×YT broth, 37° C., 18 hours, lowest concentration that inhibited visible growth
Method: as §1

MIC (E. coli strain DH5α) | MIC [1] | melting point | Structure (SMILES)
200 to 300 µM (≈ 80.9 to 121 µg/mL) | 25 µM (≈ 10.1 µg/mL) |  | CCCC[C@H](CN(O)C=O)C(=O)N[C@@H](Cc1ccccc1)C(=O)OC1CCCC1 [Example 4, 2S-{2R-[(Formyl-hydroxy-amino)-methyl]-hexanoylamino}-3-phenyl-propionic Acid Cyclopentyl Ester]
> 200 µM | 200 to 300 µM (≈ 83.7 to 126 µg/mL) |  | CC(C)C[C@@H](C(=O)N[C@@H](Cc1ccccc1)C(=O)OC1CCCC1)C(C)N(O)C=O (stereo partly drawn) [Example 2, 2S-{2R-[1-(R,S)-(Formyl-hydroxy-amino)-ethyl]-4-methyl-pentanoylamino}-3-phenylpropionic Acid Cyclopentyl Ester]
50 µM (≈ 15.8 µg/mL) | 200 µM (≈ 63.3 µg/mL) | 63.5 to 64.5 °C | CCCC[C@H](CN(O)C=O)C(=O)N[C@H](C(=O)OC)C(C)(C)C [Example 5, 2S-{2R-[(Formyl-hydroxy-amino)methyl]-hexanoylamino}-3,3-dimethyl Butyric Acid Methyl Ester]
 |  | 76.8 to 78.5 °C | O=CN(O)C[C@@H](CC1CCCC1)C(=O)N[C@@H](Cc1ccccc1)C(=O)OC1CCCC1 [Example 16, 2S-[2R-Cyclopentylmethyl-3-(formyl-hydroxy-amino)-propionylamino]-3-phenyl-propionic Acid Cyclopentyl Ester]
100 µM (≈ 35.6 µg/mL) | 50 µM (≈ 17.8 µg/mL) |  | CCCCC(CN(O)C=O)C(=O)N[C@H](C(=O)OC1CCCC1)C(C)C (stereo partly drawn) [Example 6, 2S-{2R-[(Formyl-hydroxy-amino)methyl]-hexanoylamino}-3-methyl Butyric Acid Cyclopentyl Ester]
50 µM (≈ 18.5 µg/mL) | 12.5 µM (≈ 4.63 µg/mL) |  | CCCC[C@H](CN(O)C=O)C(=O)N[C@H](C(=O)OC1CCCC1)C(C)(C)C [Example 3, 2S{-2R-[(Formyl-hydroxy-amino)-methyl]-hexanoylamino}-3,3-dimethyl Butyric Acid Cyclopentyl Ester]
500 µM (≈ 219 µg/mL) | 12.5 µM (≈ 5.48 µg/mL) |  | O=CN(O)CC(Cc1ccccc1)C(=O)N[C@@H](Cc1ccccc1)C(=O)OC1CCCC1 (stereo partly drawn) [Example 1, 2S-[2-(R,S)-Benzyl-3-(formyl-hydroxy-amino)-propionylamino]-3-phenyl-propionic acid cyclopentyl ester]
 |  | 76.1 to 78.2 °C | CCCC[C@H](CN(O)C=O)C(=O)N[C@H](C(=O)OC(C)(C)C)C(C)(C)C [Example 11, 2S-{2R-[(Formyl-hydroxy-amino)-methyl]-hexanoylamino}-3,3-dimethyl-butyric Acid Tert-butyl Ester]
